Measured values reported in patent US10111956B2, “Corticosteroid compositions” (TOLMAR, Inc., priority 2013, dated 2018).

Experiments:
[1] = Solubility of corticosteroids in neat solvents, measured gravimetrically; type: physicochemical; settings: for Solubility in PG Monocaprylate: neat PG monocaprylate; for Solubility in PG Monocaprylate / Solubility in PG Monolaurate / Solubility in Isopropyl Myristate: room temperature, examined at about 24 hours; for Solubility in PG Monolaurate: neat PG monolaurate; for Solubility in Isopropyl Myristate: neat isopropyl myristate; for times more soluble in PG monocaprylate than in isopropyl myristate / times more soluble in PG monolaurate than in isopropyl myristate: ratio of Table 1 solubilities
Experimental: (§1) The solubilities of various corticosteroids in propylene glycol (PG) monocaprylate, PG monolaurate, or isopropyl myristate were measured gravimetrically. Corticosteroid, PG monocaprylate, PG monolaurate, and/or isopropyl myristate were placed in glass vials and weighed on an analytical balance to four decimals places. Test solutions were stirred and shaken at room temperature for up to 30 minutes. Test solutions were examined at about 24 hours for clarity or non-dissolved material.

[2] = Solubility of corticosteroid in mixtures of solvent components (procedure of Example 1); type: physicochemical
Experimental: as §1

Compound | Solubility in PG Monocaprylate [1] | Solubility in PG Monolaurate [1] | Solubility in Isopropyl Myristate [1] | times more soluble in PG monocaprylate than in isopropyl myristate [1] | times more soluble in PG monolaurate than in isopropyl myristate [1] | other results
CCC(=O)OCC(=O)[C@@]1(OC(=O)CC)[C@@H](C)C[C@H]2[C@@H]3CCC4=CC(=O)C=C[C@]4(C)[C@@]3(F)[C@@H](O)C[C@@]21C [Betamethasone Dipropionate] | 4.0 % w/w | 2.30 % w/w | 0.15 % w/w | 27 times | 15.3 times | –
CCC(=O)O[C@]1(C(=O)SCF)[C@H](C)C[C@H]2[C@@H]3C[C@H](F)C4=CC(=O)C=C[C@]4(C)[C@@]3(F)[C@@H](O)C[C@@]21C [Fluticasone Propionate] | 0.3 % w/w | – | <0.03 % w/w | 10 times | – | –
CCCC(=O)O[C@]1(C(=O)CO)CC[C@H]2[C@@H]3CCC4=CC(=O)CC[C@]4(C)[C@H]3[C@@H](O)C[C@@]21C [Hydrocortisone Butyrate] | 2.0 % w/w | 1.35 % w/w | 0.10 % w/w | 20 times | 13.5 times | –
CC1(C)O[C@@H]2C[C@H]3[C@@H]4CCC5=CC(=O)C=C[C@]5(C)[C@@]4(F)[C@@H](O)C[C@]3(C)[C@]2(C(=O)CO)O1 [Triamcinolone Acetonide] | 0.65 % w/w | 0.30 % w/w | <0.04 % w/w | at least 16 times | at least 7.5 times | Solubility in PG Monolaurate ([1]; listed as triamcinolone acetonide): 0.3 % w/w; increase of solubility on addition of ethoxydiglycol to PG alone ([2]; 12:12:0 ethoxydiglycol:PG:PG monocaprylate versus PG alone, Example 5): 1.7 fold; Solubility ([2]; Ethoxydiglycol:PG:PG Monocaprylate 12:0:12, Table 7): 1.53 % w/w; Solubility ([2]; Ethoxydiglycol:PG:PG Monocaprylate 12:3:9, Table 7): 2.00 % w/w; Solubility ([2]; Ethoxydiglycol:PG:PG Monocaprylate 12:6:6, Table 7): 2.30 % w/w; Solubility ([2]; Ethoxydiglycol:PG:PG Monocaprylate 12:9:3, Table 7): 2.45 % w/w; Solubility ([2]; Ethoxydiglycol:PG:PG Monocaprylate 12:12:0, Table 7): 2.45 % w/w; solubility in ethoxydiglycol:PG:PG monocaprylate mixture compared with PG:PG monocaprylate mixture ([2]; FIG. 4): more soluble; solubility in PG:PG monocaprylate mixtures compared with expected solubility (dashed line) ([2]; FIG. 4, each tested mixture containing both PG and PG monocaprylate): more soluble in the mixture than expected; Solubility ([2]; PG:PG Monocaprylate 0:100 (PG monocaprylate alone), Table 6): 0.60 % w/w; Solubility ([2]; PG:PG Monocaprylate 25:75, Table 6): 1.25 % w/w; Solubility ([2]; PG:PG Monocaprylate 50:50, Table 6): 1.60 % w/w; Solubility ([2]; PG:PG Monocaprylate 75:25, Table 6): 1.50 % w/w; Solubility ([2]; PG:PG Monocaprylate 90:10, Table 6): 1.15 % w/w; Solubility ([2]; PG:PG Monocaprylate 100:0 (PG alone), Table 6): 0.90 % w/w

Second part, led by results:

Solubility in PG Monocaprylate [1] | Solubility in PG Monolaurate [1] | Solubility in Isopropyl Myristate [1] | times more soluble in PG monocaprylate than in isopropyl myristate [1] | times more soluble in PG monolaurate than in isopropyl myristate [1] | Compound | other results
1.15 % w/w | 0.40 % w/w | – | – | – | CC1(C)O[C@@H]2C[C@H]3[C@@H]4CCC5=CC(=O)C=C[C@]5(C)[C@H]4[C@@H](O)C[C@]3(C)[C@]2(C(=O)CO)O1 [Desonide] | –
4.0 % w/w | 1.80 % w/w | 0.25 % w/w | 16 times | 7.2 times | CCC(=O)O[C@]1(C(=O)CCl)[C@@H](C)C[C@H]2[C@@H]3CCC4=CC(=O)C=C[C@]4(C)[C@@]3(F)[C@@H](O)C[C@@]21C [Clobetasol Propionate] | –
0.7 % w/w | – | – | – | – | C[C@@H]1C[C@H]2[C@@H]3CCC4=CC(=O)C=C[C@]4(C)[C@@]3(Cl)[C@@H](O)C[C@]2(C)[C@@]1(OC(=O)c1ccco1)C(=O)CCl [Mometasone Fuorate] | –
